Data reported in PubChem BioAssay AID1963852 (Molecular Pharmacology Branch, DTP, NCI, 2024).

Tested on: 282377-053-R-J1-PDC complex spheroid viability
Assay: Anticancer human tumor 282377-053-R-J1-PDC patient-derived colon adenocarcinoma cell line growth inhibition [POLQ]
Details: for IC50: curve of first compound; for viability, T/C: stronger effect = lower value
Summary of the method: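 Patient-derived tumour cells were co-cultured with HUVEC and mesenchymal stem cells as multicellular spheroids at 37 °C. They were treated with POLQ inhibitors (novobiocin, ART-558, RP6685) alone or combined with other agents. Top concentrations were at or near clinical Cmax (otherwise 10 microM; SN-38 at 1 microM), decreasing in half-log steps.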

[1] = second compound 0.0316 µM, first compound 0.00316 µM
[2] = second compound 0.0316 µM, first compound 0.01 µM
[3] = second compound 0.0316 µM, first compound 0.0316 µM
[4] = second compound 0.0316 µM, first compound 0.1 µM
[5] = second compound 0.0316 µM, first compound 0.316 µM
[6] = second compound 0.0316 µM, first compound 1 µM
[7] = second compound 0.1 µM, first compound 0.00316 µM
[8] = second compound 0.1 µM, first compound 0.01 µM
[9] = second compound 0.1 µM, first compound 0.0316 µM
[10] = second compound 0.1 µM, first compound 0.1 µM
[11] = second compound 0.1 µM, first compound 0.316 µM
[12] = second compound 0.1 µM, first compound 1 µM
[13] = second compound 0.316 µM, first compound 0.00316 µM
[14] = second compound 0.316 µM, first compound 0.01 µM
[15] = second compound 0.316 µM, first compound 0.0316 µM
[16] = second compound 0.316 µM, first compound 0.1 µM
[17] = second compound 0.316 µM, first compound 0.316 µM
[18] = second compound 0.316 µM, first compound 1 µM
[19] = second compound 1 µM, first compound 0.00316 µM
[20] = second compound 1 µM, first compound 0.01 µM
[21] = second compound 1 µM, first compound 0.0316 µM
[22] = second compound 1 µM, first compound 0.1 µM
[23] = second compound 1 µM, first compound 0.316 µM
[24] = second compound 1 µM, first compound 1 µM
[25] = second compound 3.16 µM, first compound 0.00316 µM
[26] = second compound 3.16 µM, first compound 0.01 µM
[27] = second compound 3.16 µM, first compound 0.0316 µM
[28] = second compound 3.16 µM, first compound 0.1 µM
[29] = second compound 3.16 µM, first compound 0.316 µM
[30] = second compound 3.16 µM, first compound 1 µM
[31] = second compound 10 µM, first compound 0.00316 µM
[32] = second compound 10 µM, first compound 0.01 µM
[33] = second compound 10 µM, first compound 0.0316 µM
[34] = second compound 10 µM, first compound 0.1 µM
[35] = second compound 10 µM, first compound 0.316 µM
[36] = second compound 10 µM, first compound 1 µM
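Note: spheroids exposed to compounds for seven days.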
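Throughout, for viability, T/C: 100% = DMSO vehicle control viability.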

C=CCn1c(=O)c2cnc(Nc3ccc(N4CCN(C)CC4)cc3)nc2n1-c1cccc(C(C)(C)O)n1 + Nc1ccc(C#CCN(C(=O)Cc2ncc(C(F)(F)F)cc2C(F)(F)F)c2ccc(F)cc2)nn1
IC50 (second compound 0.0316 µM): > 1000 nM
IC50 (second compound 0.1 µM): > 1000 nM
IC50 (second compound 0.316 µM): > 1000 nM
IC50 (second compound 1 µM): > 1000 nM
IC50 (second compound 3.16 µM): > 1000 nM
IC50 (second compound 10 µM): > 1000 nM
viability, T/C [1]: 122%
viability, T/C [2]: 102%
viability, T/C [3]: 99.1%
viability, T/C [4]: 98.3%
viability, T/C [5]: 81.8%
viability, T/C [6]: 69%
viability, T/C [7]: 96.3%
viability, T/C [8]: 110%
viability, T/C [9]: 89.4%
viability, T/C [10]: 107%
viability, T/C [11]: 90.7%
viability, T/C [12]: 70.1%
viability, T/C [13]: 102%
viability, T/C [14]: 96.9%
viability, T/C [15]: 99.2%
viability, T/C [16]: 86.1%
viability, T/C [17]: 91.8%
viability, T/C [18]: 61.4%
viability, T/C [19]: 106%
viability, T/C [20]: 91.8%
viability, T/C [21]: 79.9%
viability, T/C [22]: 86.2%
viability, T/C [23]: 93.8%
viability, T/C [24]: 67.6%
viability, T/C [25]: 117%
viability, T/C [26]: 110%
viability, T/C [27]: 93.8%
viability, T/C [28]: 102%
viability, T/C [29]: 85.3%
viability, T/C [30]: 84.6%
viability, T/C [31]: 117%
viability, T/C [32]: 100%
viability, T/C [33]: 96.7%
viability, T/C [34]: 94.7%
viability, T/C [35]: 100%
viability, T/C [36]: 78.2%

CC[C@@]1(O)C(=O)OCc2c1cc1n(c2=O)Cc2cc3c(CN(C)C)c(O)ccc3nc2-1 + Nc1ccc(C#CCN(C(=O)Cc2ncc(C(F)(F)F)cc2C(F)(F)F)c2ccc(F)cc2)nn1
IC50 (second compound 0.0316 µM): > 100 nM
IC50 (second compound 0.1 µM): > 100 nM
IC50 (second compound 0.316 µM): > 100 nM
IC50 (second compound 1 µM): > 100 nM
IC50 (second compound 3.16 µM): > 100 nM
IC50 (second compound 10 µM): > 100 nM
viability, T/C (second compound 0.0316 µM, first compound 0.000316 µM): 117%
viability, T/C (second compound 0.0316 µM, first compound 0.001 µM): 90.7%
viability, T/C [1]: 124%
viability, T/C [2]: 103%
viability, T/C [3]: 96.5%
viability, T/C [4]: 99.8%
viability, T/C (second compound 0.1 µM, first compound 0.000316 µM): 91.1%
viability, T/C (second compound 0.1 µM, first compound 0.001 µM): 99.2%
viability, T/C [7]: 91%
viability, T/C [8]: 94.7%
viability, T/C [9]: 103%
viability, T/C [10]: 102%
viability, T/C (second compound 0.316 µM, first compound 0.000316 µM): 97.1%
viability, T/C (second compound 0.316 µM, first compound 0.001 µM): 94.8%
viability, T/C [13]: 91.7%
viability, T/C [14]: 79.3%
viability, T/C [15]: 101%
viability, T/C [16]: 101%
viability, T/C (second compound 1 µM, first compound 0.000316 µM): 95.2%
viability, T/C (second compound 1 µM, first compound 0.001 µM): 88.9%
viability, T/C [19]: 83%
viability, T/C [20]: 85%
viability, T/C [21]: 102%
viability, T/C [22]: 91.1%
viability, T/C (second compound 3.16 µM, first compound 0.000316 µM): 95.8%
viability, T/C (second compound 3.16 µM, first compound 0.001 µM): 95.7%
viability, T/C [25]: 94.2%
viability, T/C [26]: 95.4%
viability, T/C [27]: 103%
viability, T/C [28]: 91.8%
viability, T/C (second compound 10 µM, first compound 0.000316 µM): 111%
viability, T/C (second compound 10 µM, first compound 0.001 µM): 93.7%
viability, T/C [31]: 124%
viability, T/C [32]: 112%
viability, T/C [33]: 112%
viability, T/C [34]: 127%

CCc1c2c(nc3ccc(O)cc13)-c1cc3c(c(=O)n1C2)COC(=O)[C@]3(O)CC + Nc1ccc(C#CCN(C(=O)Cc2ncc(C(F)(F)F)cc2C(F)(F)F)c2ccc(F)cc2)nn1
IC50 (second compound 0.0316 µM): > 1000 nM
IC50 (second compound 0.1 µM): 945 nM
IC50 (second compound 0.316 µM): 808 nM
IC50 (second compound 1 µM): > 1000 nM
IC50 (second compound 3.16 µM): > 1000 nM
IC50 (second compound 10 µM): 860 nM
viability, T/C [1]: 99.3%
viability, T/C [2]: 96.8%
viability, T/C [3]: 80.7%
viability, T/C [4]: 78.3%
viability, T/C [5]: 69.9%
viability, T/C [6]: 58.8%
viability, T/C [7]: 92%
viability, T/C [8]: 84.3%
viability, T/C [9]: 86%
viability, T/C [10]: 72.8%
viability, T/C [11]: 62.9%
viability, T/C [12]: 49.4%
viability, T/C [13]: 101%
viability, T/C [14]: 92.3%
viability, T/C [15]: 75.4%
viability, T/C [16]: 74.4%
viability, T/C [17]: 60.4%
viability, T/C [18]: 46.8%
viability, T/C [19]: 107%
viability, T/C [20]: 91.7%
viability, T/C [21]: 99.8%
viability, T/C [22]: 66.9%
viability, T/C [23]: 61.8%
viability, T/C [24]: 51.6%
viability, T/C [25]: 108%
viability, T/C [26]: 87.1%
viability, T/C [27]: 83.8%
viability, T/C [28]: 70.6%
viability, T/C [29]: 60.4%
viability, T/C [30]: 51.5%
viability, T/C [31]: 116%
viability, T/C [32]: 127%
viability, T/C [33]: 97.1%
viability, T/C [34]: 80.3%
viability, T/C [35]: 64.3%
viability, T/C [36]: 46.4%
